Literature values, collected in patent publication US20170035778A1, “FORMULATIONS AND USES FOR MICROPARTICLE DELIVERY OF METALLOPORPHYRINS” (The Board of Trustees of the Leland Stanford Junior …, priority 2015, published 2017).

Details: SnMP within 24 h of birth in premature newborns

**Q.** For tin mesoporphyrin [SnMP], which “reduction of the requirement for phototherapy compared with control subjects” value is on record?
**A.** approximately 75%
